Patent publication US20070148094A1, “Polymeric imaging agents and medical imaging methods” (priority 2005, published 2007)

System: rat mammary tumor line (MAT-B-III)
Experiment: Optical (NIR fluorescence) imaging of tumor to background ratio in tumor rat model
Format: in vivo
Description: For optical imaging the signal to ratio background ratio is defined as the mean fluorescence intensity (target tissue)/mean fluorescence intensity (background tissue). For optical imaging methods, target to background ratio may be determined using computer-controlled (LabVIEW) camera acquisition via custom LabVIEW software. […] A region of interest (ROI) maybe defined in both the tumor area and the background tissue area. Fluorescence emission from the ROI may be received at a near-infrared sensitive 12-bit CCD camera, in which the intensities range from 0-4095.
Optical Imaging Using Tumor Rat Model. Step 1. Introduction of Tumor Cells into Animal. Intra-mammary gland tumor injection is a survival surgery. All procedures are performed with the animal lying on a circulating water pad. With the anesthetized rat lying on its back, the sterile prepped ventral abdominal skin is picked up, just above the left groin (inguinal) area and a small incision is made with scissors being careful to avoid the underlying peritonium. The fourth mammary gland is easily visible, lying on the dorsal surface of the skin directly on top of a junction point for the mammary artery and vein. Using a 1 cc syringe, 10^6 cells (0.1 ml) were injected directly into the gland. Only one mammary gland per rat was inoculated with tumor cells. The skin wound was closed with surgical staples. Surgical staples were removed 3 days after insertion.
Animals are treated with test agents and imaged 7 days after tumor injections. Test agents are administered via a tail vein injection (100-500 μl). For MR studies, animals received a pre-injection scan, followed by post-injection scans. Images were obtained post injection at approximately 4-minute intervals following injection for up to 30-40 minutes. In some experiments images were again taken at 24 hours after injection. For optical studies, animals were imaged at 0.5, 6, 12, and 24 hours.
Step 2. Agent Administration. After approximately 8 days following tumor cell implantation (the tumor size reached about 5-10 mm diameter) one of several imaging agents listed in Table 2 was administered to the animal at the corresponding dosage indicated in Table 2.
Step 3. Surgical Resection. Surgical tumor resection is a non-survival surgery. Tumors were resecteded when they reached a diameter in the range of 5-10 mm in diameter. With the anesthetized rat lying on its back, the ventral abdominal skin is picked up, just above the left groin (inguinal) area and a small incision is made (at or near the site of tumor inoculation) with scissors being careful to avoid the underlying peritonium. The tumor, growing in the mammary gland, stays contained in this tissue and is easily removed. The tumor was held with a pair of forceps and using a scalpel is removed from the surrounding connective tissue. After the tumor was removed, a midline incision, through the peritoneum was made, other organs were observed and imaged, and sampled for histological and biodistribution studies.
Step 4. Data Capture. Images were captured for later evaluation of the relative intensity of fluorescence in the kidney, liver, bladder, muscle etc. Samples of blood and urine were acquired and stored, the animal was sacrificed, and the clearance organs were removed from animal and frozen in a slurry of dry ice and 2-methylbutane. The tissues were then placed in an embedding medium (OCT, […]) and frozen at −80° C. Blood and urine samples were analyzed for concentration of agent at this time point, and for evidence of metabolism of the administered agent.
Statistical Analysis of Optical Imagine Results. To reduce the large number of variables in this problem and one polymer length (˜400 residues) was chosen at a high percentage conjugation (˜96%) for the MR imaging moiety (Gd-DTPA) with one dye per molecule. In one set of experiments, a tetra-sulfonated dye (Cy5.5-NHS-Ester) was then compared with a bis-sulfonated dye (Cy5-NHS-Ester). […]

CC[N+]1=C(C=CC=CC=C2N(CCCCCC(=O)O)c3ccc(S(=O)(=O)[O-])cc3C2(C)C)C(C)(C)c2cc(S(=O)(=O)[O-])ccc21.[Na+] [Cy5 free dye, 2-[5-[1-(5-carboxypentyl)-1,3-dihydro-3,3-dimethyl-5-sulfo-2H-indol-2-ylidene]-penta-1,3-dienyl]-3,3-dimethyl-5-sulfo-1-ethyl-3H-indolium, inner salt, sodium salt]
Average of Tumor/Bkgnd (dose printed as 'blank', 6 hours post injection): 1.17 | Average of Tumor/Bkgnd (dose printed as 'blank', 12 hours post injection): 1.18 | Average of Tumor/Bkgnd (dose printed as 'blank', 24 hours post injection): 1.17 | Average of Tumor/Bkgnd (dose printed as 'blank', Total over time points): 1.17 | Average of Tumor/Bkgnd (vector subtotal over all doses, 6 hours post injection): 1.17 | Average of Tumor/Bkgnd (vector subtotal over all doses, 12 hours post injection): 1.18 | Average of Tumor/Bkgnd (vector subtotal over all doses, 24 hours post injection): 1.17 | Average of Tumor/Bkgnd (vector subtotal over all doses, Total over time points): 1.17
